Experimental data taken from paper PMC12514245, “Impaired migration and lung invasion of human melanoma by a novel small molecule targeting the transmembrane domain of death receptor p75^NTR” (EMBO Molecular Medicine, 2025).
Entries after “also recorded” stand apart in the source; their conditions may differ. Read-outs that look alike come from different tables or passages of the source.

What was measured:
[1] = target: T1, p75^NTR I253A TMD mutant in COS cells (Rattus norvegicus, UniProt P07174, I253A); assay: Live cell homo-FRET anisotropy, I253A mutant p75NTR; format: cell-based; design: key to average anisotropy change, I253A: fold change vs mean of 6 pre-treatment time points (baseline ≈ 100); settings: for average anisotropy change, I253A: 10 μM
T1 construct: COS cells expressing full length, GFP-tagged rat p75^NTR; expressed in transfected cells; host or cells: COS-7
T1 sequence (P07174 30-425 I253A): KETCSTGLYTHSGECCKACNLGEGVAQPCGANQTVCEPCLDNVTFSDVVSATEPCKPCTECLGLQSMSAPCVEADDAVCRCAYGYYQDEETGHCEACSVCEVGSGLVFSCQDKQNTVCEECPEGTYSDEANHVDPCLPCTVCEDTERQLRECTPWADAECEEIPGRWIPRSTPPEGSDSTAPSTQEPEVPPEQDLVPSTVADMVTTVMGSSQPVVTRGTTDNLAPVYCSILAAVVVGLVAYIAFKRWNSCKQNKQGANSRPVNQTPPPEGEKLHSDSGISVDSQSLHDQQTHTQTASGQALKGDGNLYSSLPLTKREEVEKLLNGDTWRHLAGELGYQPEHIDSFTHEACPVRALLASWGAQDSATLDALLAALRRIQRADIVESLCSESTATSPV
From the text: Previous real-time homo-FRET anisotropy studies by ours as well as other laboratories have shown that the intracellular death domains of p75^NTR are associated with each other (high FRET, low anisotropy state) under basal conditions (Vilar et al, [2009]; Sykes et al, [2012]), but neurotrophin binding induces transient separation of p75^NTR death domains (low FRET, high anisotropy state) manifested as oscillations in real-time anisotropy measurements (Lin et al, [2015]; Tanaka et al, [2016]; Goh et al, [2018]). COS cells expressing full length, GFP-tagged rat p75^NTR were treated with vehicle or Div17E5 and changes in anisotropy levels were recorded over time.
Anisotropy imaging in COS-7 cells that were transfected with a rat p75^NTR-EGFP* fusion construct was done as previously described (Goh, Lin et al, [2018]). EGFP* carries a […] mutation rendering monomeric EGFP. Changes in anisotropy were expressed as fold change at each time point (every 30 s) in comparison to the mean of 6 time points obtained prior to addition of treatment. Images were acquired using Nikon Ti-E based live cell epi-fluorescence microscope and MetaMorph software and analyzed using MatLab from Mathworks.

[2] = Plasma pharmacokinetics in mice; format: in vivo, C57BL/6 mice; settings: for Cmax: read-out: C0/Cmax; for Vd: read-out: Vss
[3] = mouse, in vivo
[4] = C57BL/6, mouse, IV 3 mg/kg, female, plasma
[5] = C57BL/6, mouse, IV 3 mg/kg, male, plasma
[6] = C57BL/6, mouse, PO 10 mg/kg, female, plasma
[7] = C57BL/6, mouse, PO 10 mg/kg, male, plasma

With `Oc1ccc(-c2cncc(Nc3ccc(Br)c(Cl)c3)n2)cc1` [Div17E5] the “real-time homo-FRET anisotropy, Ile253 to Ala mutant” value ([1]; 10 µM) was “blunted homo-FRET changes”, the “average anisotropy change, I253A” value ([1]; 0 min after compound addition) was 101 and the “average anisotropy change, I253A” value ([1]; 0.5 min after compound addition) was 97. For the same compound, the “average anisotropy change, I253A” value ([1]; 1 min after compound addition) was 99, the “average anisotropy change, I253A” value ([1]; 1.5 min after compound addition) was 105 and the “average anisotropy change, I253A” value ([1]; 2 min after compound addition) was 103. For the same compound, the “average anisotropy change, I253A” value ([1]; 2.5 min after compound addition) was 100, the “average anisotropy change, I253A” value ([1]; 3 min after compound addition) was 100 and the “average anisotropy change, I253A” value ([1]; 3.5 min after compound addition) was 99. For the same compound, the “average anisotropy change, I253A” value ([1]; 4 min after compound addition) was 102, the “average anisotropy change, I253A” value ([1]; 4.5 min after compound addition) was 95 and the “average anisotropy change, I253A” value ([1]; 5 min after compound addition) was 101. The “average anisotropy change, I253A” value ([1]; 5.5 min after compound addition) was 100, the “average anisotropy change, I253A” value ([1]; 6 min after compound addition) was 103 and the “average anisotropy change, I253A” value ([1]; 6.5 min after compound addition) was 91. For the same compound, the “average anisotropy change, I253A” value ([1]; 7 min after compound addition) was 103, the “average anisotropy change, I253A” value ([1]; 7.5 min after compound addition) was 100 and the “average anisotropy change, I253A” value ([1]; 8 min after compound addition) was 96. The “average anisotropy change, I253A” value ([1]; 8.5 min after compound addition) was 103, the “average anisotropy change, I253A” value ([1]; 9 min after compound addition) was 93 and the “average anisotropy change, I253A” value ([1]; 9.5 min after compound addition) was 102. For the same compound, the “average anisotropy change, I253A” value ([1]; 10 min after compound addition) was 101, the “average anisotropy change, I253A” value ([1]; 10.5 min after compound addition) was 97 and the “average anisotropy change, I253A” value ([1]; 11 min after compound addition) was 105. For the same compound, the “average anisotropy change, I253A” value ([1]; 11.5 min after compound addition) was 98, the “average anisotropy change, I253A” value ([1]; 12 min after compound addition) was 97 and the “average anisotropy change, I253A” value ([1]; 12.5 min after compound addition) was 99. The “average anisotropy change, I253A” value ([1]; 13 min after compound addition) was 104, the “average anisotropy change, I253A” value ([1]; 13.5 min after compound addition) was 102 and the “average anisotropy change, I253A” value ([1]; 14 min after compound addition) was 96. For the same compound, the “average anisotropy change, I253A” value ([1]; 14.5 min after compound addition) was 104, the “average anisotropy change, I253A” value ([1]; 15 min after compound addition) was 99 and the “average anisotropy change, I253A” value ([1]; -0.5 min after compound addition) was 106. For the same compound, the “average anisotropy change, I253A” value ([1]; -1 min after compound addition) was 94, the “average anisotropy change, I253A” value ([1]; -1.5 min after compound addition) was 101 and the “average anisotropy change, I253A” value ([1]; -2 min after compound addition) was 103. The “average anisotropy change, I253A” value ([1]; -2.5 min after compound addition) was 97 and the “average anisotropy change, I253A” value ([1]; -3 min after compound addition) was 99.
Work on `Cc1cccc(-c2cncc(Nc3ccc(Br)c(Cl)c3Cl)n2)c1C` [Np75-4A22] yielded an AUC(0-t) [2, 4] of 1670 ng·h/mL, a Cmax ([2]; C57BL/6, mouse, IV 3 mg/kg, female, plasma, back extrapolated) of 3400 ng/mL and a clearance ([2]; C57BL/6, mouse, IV 3 mg/kg, female, plasma, read-out: CL) of 29.5 mL/min/kg. For the same compound, the half-life ([2]; C57BL/6, mouse, IV 3 mg/kg, female, plasma, read-out: T1/2 (converted)) was 8.64 h, the Vd [2, 4] was 3.23 L/kg and the AUC(0-t) [2, 5] was 2070 ng·h/mL. It also gave a Cmax ([2]; C57BL/6, mouse, IV 3 mg/kg, male, plasma, back extrapolated) of 4710 ng/mL, a clearance ([2]; C57BL/6, mouse, IV 3 mg/kg, male, plasma, read-out: CL) of 23.9 mL/min/kg and a half-life ([2]; C57BL/6, mouse, IV 3 mg/kg, male, plasma, read-out: T1/2 (converted)) of 7.45 h. The Vd [2, 5] was 2.09 L/kg, the AUC(0-t) [2, 6] was 2680 ng·h/mL and the Tmax [2, 6] was 0.5 h. The bioavailability [2, 6] was 48%, the Cmax [2, 6] was 1030 ng/mL and the AUC(0-t) [2, 7] was 4730 ng·h/mL. The Tmax [2, 7] was 0.5 h, the bioavailability [2, 7] was 69% and the Cmax [2, 7] was 1310 ng/mL. The clearance ([2]; i.v. 3 mg/kg, male and female) was “low clearance”, the half-life ([2]; i.v. 3 mg/kg, male and female) was “long half-life” and the absorption ([2]; oral 10 mg/kg, male and female) was “rapid absorption”. For the same compound, the oral bioavailability ([2]; oral 10 mg/kg, male and female, 10 mg/kg) was “good oral bioavailability; also recorded: high oral bioavailability” and the single dose toxicity [3] was “No mortality or abnormal clinical signs”.
